Data as given in PubChem BioAssay AID1963836 (Molecular Pharmacology Branch, DTP, NCI, 2024).

Test system: 857933-349-R-J2-PDC complex spheroid viability
Assay: Anticancer human tumor 857933-349-R-J2-PDC patient-derived colon adenocarcinoma cell line growth inhibition [POLQ]
Conditions: for IC50: curve of first compound; for viability, T/C: stronger effect = lower value
In short: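 Patient-derived tumour cells were co-cultured with HUVEC and mesenchymal stem cells as multicellular spheroids at 37 °C. They were treated with POLQ inhibitors (novobiocin, ART-558, RP6685) alone or combined with other agents. Top concentrations were at or near clinical Cmax (otherwise 10 microM; SN-38 at 1 microM), decreasing in half-log steps.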

[1] = second compound 0.0316 µM, first compound 0.0316 µM
[2] = second compound 0.0316 µM, first compound 0.1 µM
[3] = second compound 0.0316 µM, first compound 0.316 µM
[4] = second compound 0.0316 µM, first compound 1 µM
[5] = second compound 0.1 µM, first compound 0.0316 µM
[6] = second compound 0.1 µM, first compound 0.1 µM
[7] = second compound 0.1 µM, first compound 0.316 µM
[8] = second compound 0.1 µM, first compound 1 µM
[9] = second compound 0.316 µM, first compound 0.0316 µM
[10] = second compound 0.316 µM, first compound 0.1 µM
[11] = second compound 0.316 µM, first compound 0.316 µM
[12] = second compound 0.316 µM, first compound 1 µM
[13] = second compound 1 µM, first compound 0.0316 µM
[14] = second compound 1 µM, first compound 0.1 µM
[15] = second compound 1 µM, first compound 0.316 µM
[16] = second compound 1 µM, first compound 1 µM
[17] = second compound 3.16 µM, first compound 0.0316 µM
[18] = second compound 3.16 µM, first compound 0.1 µM
[19] = second compound 3.16 µM, first compound 0.316 µM
[20] = second compound 3.16 µM, first compound 1 µM
[21] = second compound 10 µM, first compound 0.0316 µM
[22] = second compound 10 µM, first compound 0.1 µM
[23] = second compound 10 µM, first compound 0.316 µM
[24] = second compound 10 µM, first compound 1 µM
[25] = second compound 0.0316 µM, first compound 3.16 µM
[26] = second compound 0.0316 µM, first compound 10 µM
[27] = second compound 0.1 µM, first compound 3.16 µM
[28] = second compound 0.1 µM, first compound 10 µM
[29] = second compound 0.316 µM, first compound 3.16 µM
[30] = second compound 0.316 µM, first compound 10 µM
[31] = second compound 1 µM, first compound 3.16 µM
[32] = second compound 1 µM, first compound 10 µM
[33] = second compound 3.16 µM, first compound 3.16 µM
[34] = second compound 3.16 µM, first compound 10 µM
[35] = second compound 10 µM, first compound 3.16 µM
[36] = second compound 10 µM, first compound 10 µM
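Also: spheroids exposed to compounds for seven days before readout.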

SMILES: CCc1c2c(nc3ccc(O)cc13)-c1cc3c(c(=O)n1C2)COC(=O)[C@]3(O)CC + Cc1cccc(N(C)C(=O)C2C(O)CCN2c2nc(C)cc(C(F)(F)F)c2C#N)c1
- IC50 (second compound 0.0316 µM): 0.0215 µM
- IC50 (second compound 0.1 µM): 0.0167 µM
- IC50 (second compound 0.316 µM): 0.014 µM
- IC50 (second compound 1 µM): 0.0156 µM
- IC50 (second compound 3.16 µM): 0.0134 µM
- IC50 (second compound 10 µM): 0.0136 µM
- viability, T/C (second compound 0.0316 µM, first compound 0.00316 µM): 75%
- viability, T/C (second compound 0.0316 µM, first compound 0.01 µM): 78.5%
- viability, T/C [1]: 36.5%
- viability, T/C [2]: 20%
- viability, T/C [3]: 16.1%
- viability, T/C [4]: 5.22%
- viability, T/C (second compound 0.1 µM, first compound 0.00316 µM): 70.1%
- viability, T/C (second compound 0.1 µM, first compound 0.01 µM): 68.6%
- viability, T/C [5]: 27.4%
- viability, T/C [6]: 17.7%
- viability, T/C [7]: 13.2%
- viability, T/C [8]: 3.51%
- viability, T/C (second compound 0.316 µM, first compound 0.00316 µM): 67%
- viability, T/C (second compound 0.316 µM, first compound 0.01 µM): 59.5%
- viability, T/C [9]: 32%
- viability, T/C [10]: 20.2%
- viability, T/C [11]: 15%
- viability, T/C [12]: 4.16%
- viability, T/C (second compound 1 µM, first compound 0.00316 µM): 73.9%
- viability, T/C (second compound 1 µM, first compound 0.01 µM): 62.5%
- viability, T/C [13]: 30.8%
- viability, T/C [14]: 19.8%
- viability, T/C [15]: 14.1%
- viability, T/C [16]: 5.21%
- viability, T/C (second compound 3.16 µM, first compound 0.00316 µM): 72.9%
- viability, T/C (second compound 3.16 µM, first compound 0.01 µM): 59.6%
- viability, T/C [17]: 23.5%
- viability, T/C [18]: 19.1%
- viability, T/C [19]: 12.3%
- viability, T/C [20]: 4.25%
- viability, T/C (second compound 10 µM, first compound 0.00316 µM): 65.1%
- viability, T/C (second compound 10 µM, first compound 0.01 µM): 60.2%
- viability, T/C [21]: 22.4%
- viability, T/C [22]: 17.7%
- viability, T/C [23]: 17.1%
- viability, T/C [24]: 2.64%

SMILES: CCc1cc2c(N3CCc4c(cc(Cn5ccnc5)cc4-c4cn(C)nc4C(F)(F)F)C3=O)ccnc2c(OC)n1 + COC1C(OC(N)=O)C(O)C(Oc2ccc3c(O)c(NC(=O)c4ccc(O)c(CC=C(C)C)c4)c(=O)oc3c2C)OC1(C)C
- IC50 (second compound 0.0316 µM): > 10 µM
- IC50 (second compound 0.1 µM): 7.52 µM
- IC50 (second compound 0.316 µM): > 10 µM
- IC50 (second compound 1 µM): > 10 µM
- IC50 (second compound 3.16 µM): > 10 µM
- IC50 (second compound 10 µM): > 10 µM
- viability, T/C [1]: 88.9%
- viability, T/C [2]: 93.4%
- viability, T/C [3]: 106%
- viability, T/C [4]: 75.6%
- viability, T/C [25]: 66%
- viability, T/C [26]: 51.8%
- viability, T/C [5]: 103%
- viability, T/C [6]: 93.1%
- viability, T/C [7]: 80.2%
- viability, T/C [8]: 84.2%
- viability, T/C [27]: 61%
- viability, T/C [28]: 44.6%
- viability, T/C [9]: 90.4%
- viability, T/C [10]: 104%
- viability, T/C [11]: 73.4%
- viability, T/C [12]: 71.5%
- viability, T/C [29]: 65.4%
- viability, T/C [30]: 58.4%
- viability, T/C [13]: 90%
- viability, T/C [14]: 79%
- viability, T/C [15]: 74.9%
- viability, T/C [16]: 69.8%
- viability, T/C [31]: 61.3%
- viability, T/C [32]: 59.5%
- viability, T/C [17]: 96.3%
- viability, T/C [18]: 98.2%
- viability, T/C [19]: 82.7%
- viability, T/C [20]: 73.6%
- viability, T/C [33]: 75.3%
- viability, T/C [34]: 58.2%
- viability, T/C [21]: 99.6%
- viability, T/C [22]: 94.5%
- viability, T/C [23]: 75.6%
- viability, T/C [24]: 92.3%
- viability, T/C [35]: 59.7%
- viability, T/C [36]: 62.8%

SMILES: O=C(c1cc(Cc2n[nH]c(=O)c3ccccc23)ccc1F)N1CCN(C(=O)C2CC2)CC1 + COC1C(OC(N)=O)C(O)C(Oc2ccc3c(O)c(NC(=O)c4ccc(O)c(CC=C(C)C)c4)c(=O)oc3c2C)OC1(C)C
- IC50 (second compound 0.0316 µM): > 10 µM
- IC50 (second compound 0.1 µM): > 10 µM
- IC50 (second compound 0.316 µM): > 10 µM
- IC50 (second compound 1 µM): > 10 µM
- IC50 (second compound 3.16 µM): > 10 µM
- IC50 (second compound 10 µM): > 10 µM
- viability, T/C [1]: 125%
- viability, T/C [2]: 126%
- viability, T/C [3]: 90.8%
- viability, T/C [4]: 100%
- viability, T/C [25]: 109%
- viability, T/C [26]: 84.1%
- viability, T/C [5]: 94%
- viability, T/C [6]: 130%
- viability, T/C [7]: 94.4%
- viability, T/C [8]: 88.2%
- viability, T/C [27]: 102%
- viability, T/C [28]: 79.3%
- viability, T/C [9]: 123%
- viability, T/C [10]: 123%
- viability, T/C [11]: 112%
- viability, T/C [12]: 115%
- viability, T/C [29]: 92.9%
- viability, T/C [30]: 97%
- viability, T/C [13]: 93.4%
- viability, T/C [14]: 103%
- viability, T/C [15]: 87.1%
- viability, T/C [16]: 91.2%
- viability, T/C [31]: 104%
- viability, T/C [32]: 104%
- viability, T/C [17]: 92.8%
- viability, T/C [18]: 96.8%
- viability, T/C [19]: 96.3%
- viability, T/C [20]: 81.6%
- viability, T/C [33]: 96.1%
- viability, T/C [34]: 86.5%
- viability, T/C [21]: 84.5%
- viability, T/C [22]: 121%
- viability, T/C [23]: 79.3%
- viability, T/C [24]: 82.7%
- viability, T/C [35]: 120%
- viability, T/C [36]: 90%

SMILES: CC1COCCN1c1cc(-c2ccnn2C)c2ccnc(-c3ccn[nH]3)c2n1 (stereo not drawn) + Cc1cccc(N(C)C(=O)C2C(O)CCN2c2nc(C)cc(C(F)(F)F)c2C#N)c1
- IC50 (second compound 0.0316 µM): 0.186 µM
- IC50 (second compound 0.1 µM): 0.212 µM
- IC50 (second compound 0.316 µM): 0.235 µM
- IC50 (second compound 1 µM): 0.181 µM
- IC50 (second compound 3.16 µM): 0.153 µM
- IC50 (second compound 10 µM): 0.0925 µM
- viability, T/C [1]: 58.7%
- viability, T/C [2]: 55.3%
- viability, T/C [3]: 44%
- viability, T/C [4]: 29.7%
- viability, T/C [25]: 32.7%
- viability, T/C [26]: 36.6%
- viability, T/C [5]: 71.6%
- viability, T/C [6]: 73.2%
- viability, T/C [7]: 38.1%
- viability, T/C [8]: 34.2%
- viability, T/C [27]: 42.9%
- viability, T/C [28]: 37.2%
- viability, T/C [9]: 73.2%
- viability, T/C [10]: 68.3%
- viability, T/C [11]: 43.9%
- viability, T/C [12]: 31.3%
- viability, T/C [29]: 49.6%
- viability, T/C [30]: 45.4%
- viability, T/C [13]: 58.9%
- viability, T/C [14]: 63.4%
- viability, T/C [15]: 37.6%
- viability, T/C [16]: 34.4%
- viability, T/C [31]: 42.6%
- viability, T/C [32]: 43.4%
- viability, T/C [17]: 65.9%
- viability, T/C [18]: 55.4%
- viability, T/C [19]: 44.6%
- viability, T/C [20]: 38.3%
- viability, T/C [33]: 43%
- viability, T/C [34]: 45.6%
- viability, T/C [21]: 49.8%
- viability, T/C [22]: 59.9%
- viability, T/C [23]: 40%
- viability, T/C [24]: 37.6%
- viability, T/C [35]: 47.5%
- viability, T/C [36]: 34.9%
